Experimental data taken from patent US11236122B2, “Triterpene amine derivatives” (DFH THERAPEUTICS, priority 2018, dated 2022).
Structures can show the parent of a compound that is named as a salt.

How the values were obtained:
[1] = tested on: panel of HIV-1 isolates in human PBMCs; assay: PBMC antiviral assay against a panel of HIV-1 isolates (RT activity); assay type: cell-based; details: Human immunodeficiency virus 1, PBMC
Method: Antiviral assays. To produce HIV-1 stocks, 293T cells were transfected with WT pNL4-3 or the SP1-V7A derivative and culture supernatants were collected 24 h post transfection. RT-normalized virus supernatants were used to infect MT-4 cells at room temperature for 30 min. Cells were then cultured in the presence of serial dilutions of compounds. At 4 d post-infection, the culture supernatants were subjected to RT assay to monitor viral replication. The 50% inhibitory concentrations (IC50s) were defined as compound concentrations that reduced RT levels to 50% those measured in the absence of inhibitor (DMSO only controls) using GraphPad Prism 6 software. The IC50s in primary peripheral blood mononuclear cells (PBMCs) were calculated with a multi-clade panel of HIV-1 isolates by Southern Research Institute (Frederick, Md.). The PBMCs were stimulated with phytohemagglutinin (PHA) and IL-2 prior to use in the antiviral assays.
Virus Isolates. Compound evaluation against a panel of HIV-1 isolates were performed by the Southern Research Institute (SRI). The viruses were chosen to include one isolate from each of the seven HIV-1 Group M envelope subtypes A, B, C, D, E, F, and G, as well as isolates from HIV-1 Groups O and N. In addition, various drug resistant HIV-1 isolates were included for evaluation. The HIV-1 isolates selected include CCR5-tropic and CXCR4-tropic isolates. Unless otherwise noted, all virus isolates were obtained from the NIH AIDS Research and Reference Reagent Program. Virus isolate 1022-48 was obtained from Dr. William A. Schief of Merck Research Laboratories. MDR769 and MDR807 were obtained from Dr. Thomas C. Merigan of Stanford University. A low passage stock of each virus was prepared using fresh human PBMCs and stored in liquid nitrogen. Pre-titered aliquots of each virus were removed from the freezer and thawed rapidly to rt in a biological safety cabinet immediately before use.
(§1) Human PBMC Preparation. Fresh human PBMCs were isolated from screened donors, seronegative for HIV and HBV (Biological Specialty Corporation, Colmar, Pa.). Cells were pelleted/washed 2-3 times by low speed centrifugation and resuspension in Dulbecco's phosphate buffered saline (PBS) to remove contaminating platelets. The leukophoresed blood was then diluted 1:1 with PBS and layered over 14 mL of Ficoll-Hypaque density gradient (Lymphocyte Separation Medium, Cell Grow #85-072-CL, density 1.078+/−0.002 g/mL) in a 50 mL centrifuge tube and then centrifuged for 30 min at 600×g. Banded PBMCs were gently aspirated from the resulting interface and subsequently washed twice with PBS by low speed centrifugation. After the final wash, cells were enumerated by trypan blue exclusion and re-suspended at 1×10^6 cells/mL in RPMI 1640 supplemented with 15% Fetal Bovine Serum (FBS), 2 mM L-glutamine, 100 U/mL penicillin, […] streptomycin, and 4 μg/mL Phytohemagglutinin (PHA; Sigma, St. Louis, Mo.; cat #L1668). The cells were allowed to incubate for 48-72 h at 37° C. After incubation, PBMCs were centrifuged and resuspended in RPMI 1640 with 15% FBS, L-glutamine, penicillin, streptomycin, non-essential amino acids (MEM/NEAA; Hyclone; cat #SH30238.01), and 20 U/mL recombinant human IL-2 (R&D Systems Inc., Minneapolis, Minn.; cat #202IL). PBMCs were maintained in this medium at a concentration of 1-2×10^6 cells/mL, with twice-weekly medium changes until they were used in the assay protocol. Monocytes-derived-macrophages were depleted from the culture as the result of adherence to the tissue culture flask.
PBMC Assay. For the standard PBMC assay, PHA stimulated cells from at least two normal donors were pooled (mixed together), diluted in fresh medium to a final concentration of 1×10^6 cells/mL, and plated in the interior wells of a 96 well round bottom microplate at 50 μL/well (5×10^4 cells/well) in a standard formate developed by the Infectious Disease Research Department of the SRI. […]

[2] = tested on: pNL4-3 SP1-V7A; assay: CA-SP1 accumulation assay, SP1-V7A derivative; assay type: cell-based, HIV-1; details: HeLa or 293T cells; for % CA-SP1 Accumulation 10 nM SP1 V7A: 10 nM compound; for % CA-SP1 Accumulation 100 nM SP1 V7A: 100 nM compound
Method: (§2) Cell culture, plasmids and transfections. The MT-4 T-cell line was maintained in RPMI-1640 medium supplemented with 10% (vol/vol) fetal bovine serum (FBS), 2 mM glutamine, 100 U/mL penicillin and 100 μg/mL streptomycin at 37° C. in a humidified 5% CO2 atmosphere. HeLa and 293T cells were maintained in Dulbecco's modified Eagle's medium (DMEM) supplemented with 5% (vol/vol) FBS, 2 mM glutamine, 100 U/mL penicillin and 100 μg/mL streptomycin. Molecular clones used in this study were WT pNL4-3 and the derivative encoding a Val-to-Ala mutation at SP1 residue 7, referred to as SP1-V7A. The MT-4 T-cell line was transfected the DEAE/dextran procedure; HeLa and 293T cells were transfected with linear polyethylenimine (L-PEI) or Lipofectamine 2000 (Invitrogen) as recommended by the supplier.
(§3) CA-SP1 accumulation assay. For CA-SP1 accumulation assays, HeLa or 293T cells were transfected with WT pNL4-3 or the SP1-V7A derivative. At 24 h post-transfection, cells were starved in Met/Cys-free medium for 30 min and metabolically labeled with [^35S]Met/Cys-Pro-mix (Amersham) for 2-3 h. Maturation inhibitors were maintained in the cultures throughout the transfection and labeling period. Viruses were collected by ultracentrifugation at 99,000×g for 45-60 min. Virus pellets were resuspended in Triton X-100 lysis buffer [300 mM NaCl, 50 mM Tris-HCl (pH 7.5), 0.5% Triton X-100, 10 mM iodoacetamide, and protease inhibitor cocktail tablets (Roche)]. CA and CA-SP1 proteins were separated on 13.5-15% polyacrylamide gels by SDS-polyacrylamide gel electrophoresis, exposed to a phosphorimager plate (Fuji) and quantified by Quantity One software (Bio-Rad).

[3] = tested on: human PBMCs; assay: in vitro; assay type: cell-based; details: 7 days
Method: as §1
(§4) PBMC Assay. For the standard PBMC assay, PHA stimulated cells from at least two normal donors were pooled (mixed together), diluted in fresh medium to a final concentration of 1×10^6 cells/mL, and plated in the interior wells of a 96 well round bottom microplate at 50 μL/well (5×10^4 cells/well) in a standard formate developed by the Infectious Disease Research Department of the SRI. Pooling (mixing) of mononuclear cells from more than one donor was used to minimize the variability observed between individual donors, which results from quantitative and qualitative differences in HIV infection and overall response to the PHA and IL-2 of primary lymphocyte populations. Each plate contains virus control wells (cells plus virus) and experimental wells (drug plus cells plus virus). Test drug dilutions were prepared at a 2× concentration in microtiter tubes and 100 μL of each concentration was placed in appropriate wells using the standard format. 50 μL of a predetermined dilution of virus stock was placed in each test well (final MOI≈0.1). Separate plates were prepared identically without virus for drug cytotoxicity studies using an MTS assay system (described below; cytotoxicity plates also include compound control wells containing drug plus media without cells to control for colored compounds that affect the MTS assay). The PBMC cultures were maintained for seven days following infection at 37° C., 5% CO2. After this period, cell-free supernatant samples were collected for analysis of reverse transcriptase activity, and compound cytotoxicity was measured by addition of MTS to the separate cytotoxicity plates for determination of cell viability. Wells were also examined microscopically and any abnormalities were noted.
(§5) MTS Staining for PBMC Viability to Measure Cytotoxicity. At assay termination, the uninfected assay plates were stained with the soluble tetrazolium-based dye MTS (CellTiter 96 Reagent, Promega) to determine cell viability and quantify compound toxicity. MTS is metabolized by the mitochondria enzymes of metabolically active cells to yield a soluble formazan product, allowing the rapid quantitative analysis of cell viability and compound cytotoxicity. […] At termination of the assay, […] of MTS reagent was added per well and the microtiter plates were then incubated at 37° C., 5% CO2 to assess cell viability. […]

[4] = in vitro; assay type: cell-based; details: human
Method: as §1, §4, §5

[5] = tested on: WT pNL4-3; assay: CA-SP1 accumulation assay, WT NL4-3; assay type: cell-based, HIV-1; details: HeLa or 293T cells; for % CA-SP1 Accumulation 10 nM NL4-3: 10 nM compound; for % CA-SP1 Accumulation 100 nM NL4-3: 100 nM compound
Method: as §2, §3

Compound | IC50 ([1]; isolate 92RW009, PBMC) [nM] | IC50 ([1]; isolate 92UG001, PBMC) [nM] | IC50 ([1]; isolate 93BR020, PBMC) [nM] | IC50 ([1]; isolate 93BR029, PBMC) [nM] | IC50 ([1]; isolate 93IN101, PBMC) [nM] | IC50 ([1]; isolate 99UGA07412MI, PBMC) [nM] | IC50 ([1]; isolate BCF02, PBMC) [nM] | IC50 ([1]; isolate CMU02, PBMC) [nM] | IC50 ([1]; isolate JV1083, PBMC) [nM] | % CA-SP1 Accumulation 10 nM SP1 V7A [2] | CC50 [3] [nM] | CC50 at 7 days [4] [nM] | % CA-SP1 Accumulation 10 nM NL4-3 [5] [%] | % CA-SP1 Accumulation 100 nM SP1 V7A [2] [%] | % CA-SP1 Accumulation 100 nM NL4-3 [5] [%]
C=C(C)[C@@H]1CC[C@]2(CCNCCN3CCN(Cc4cccc(F)c4)CC3)CC[C@]3(C)[C@H](CC[C@@H]4[C@@]5(C)CC[C@H](OC(=O)CC(C)(C)C(=O)O)C(C)(C)[C@@H]5CC[C@]43C)[C@@H]12 [Compound 51m, (3β)-17-[2-[[2-[4-(3-Fluorophenylmethyl)piperazin-1-yl]ethyl]amino]ethyl]-28-norlup-20(29)-en-3-ol, 3-(1-Hydrogen 2,2-Dimethylbutanedioate)] | 27.9 | 7.9 | 8.4 | 10.8 | 21.5 | 17.8 | 16.7 | 18.8 | > 1000 | 40.3 (3) % | > 1000 | > 1000 | 53.7 | – | –
C=C(C)[C@@H]1CC[C@]2(CCNCCN3CCN(Cc4ccc(Cl)cc4)CC3)CC[C@]3(C)[C@H](CC[C@@H]4[C@@]5(C)CC[C@H](OC(=O)CC(C)(C)C(=O)O)C(C)(C)[C@@H]5CC[C@]43C)[C@@H]12 [Compound 51n, (3β)-17-[2-[[2-[4-(4-Chlorophenylmethyl)piperazin-1-yl]ethyl]amino]ethyl]-28-norlup-20(29)-en-3-ol, 3-(1-Hydrogen 2,2-Dimethylbutanedioate)] | 25.9 | 5.3 | 12.8 | 18.4 | 23.3 | 31.4 | 22 | 17.3 | 311 | 38.2 (3) % | > 1000 | > 1000 | 46.9 | – | –
C=C(C)[C@@H]1CC[C@]2(CCNCCN3CCN(Cc4cccc(Cl)c4)CC3)CC[C@]3(C)[C@H](CC[C@@H]4[C@@]5(C)CC[C@H](OC(=O)CC(C)(C)C(=O)O)C(C)(C)[C@@H]5CC[C@]43C)[C@@H]12 [Compound 51o, (3β)-17-[2-[[2-[4-(3-Chlorophenylmethyl)piperazin-1-yl]ethyl]amino]ethyl]-28-norlup-20(29)-en-3-ol, 3-(1-Hydrogen 2,2-Dimethylbutanedioate)] | 60.9 | 8.1 | 13.2 | 14.8 | 24.8 | 33.2 | 38.1 | 25 | 220 | 39.4 (3) % | > 1000 | > 1000 | 55.7 | – | –
C=C(C)[C@@H]1CC[C@]2(CNCCN3CCN(S(C)(=O)=O)CC3)CC[C@]3(C)[C@H](CC[C@@H]4[C@@]5(C)CC[C@H](OC(=O)CC(C)(C)C(=O)O)C(C)(C)[C@@H]5CC[C@]43C)[C@@H]12 [Compound 51x, (3β)-28-[[2-[4-(Methylsulfonyl)piperazin-1-yl]ethyl]amino]lup-20(29)-en-3-ol, 3-(1-Hydrogen 2,2-Dimethylbutanedioate) Sulfate] | – | – | – | – | – | – | – | – | – | 31.0% | – | – | 56.6 | 26.9 | 74.3
C=C(C)[C@@H]1CC[C@]2(CNCCN3CCS(=O)(=O)CC3)CC[C@]3(C)[C@H](CC[C@@H]4[C@@]5(C)CC[C@H](OC(=O)CC(C)(C)C(=O)O)C(C)(C)[C@@H]5CC[C@]43C)[C@@H]12 [Compound 51y, (3β)-28-[[2-[(1,1-Dioxothiomorpholin-4-yl)]ethyl]amino]lup-20(29)-en-3-ol, 3-(1-Hydrogen 2,2-Dimethylbutanedioate) Sulfate] | – | – | – | – | – | – | – | – | – | 28.5% | – | – | 56.4 | 28.1 | 69.4
C=C(C)[C@@H]1CC[C@]2(CCNCCCN3CCCC3)CC[C@]3(C)[C@H](CC[C@@H]4[C@@]5(C)CC[C@H](OC(=O)CC(C)(C)C(=O)O)C(C)(C)[C@@H]5CC[C@]43C)[C@@H]12 [Compound 51z, (3β)-17-[2-[[3-(1-Pyrrolidinyl)propyl]amino]ethyl]-28-norlup-20(29)-en-3-ol, 3-(1-Hydrogen 2,2-Dimethylbutanedioate) Sulfate] | – | – | – | – | – | – | – | – | – | 7.5% | – | – | 9.5 | 10.5 | 19.9
